Molecules are shown by their SMILES. Where only a bound is given, the exact number is not on record here.

The test has as its target T1, AGAP002992-PA (Anopheles gambiae, UniProt Q5TU56).
T1 sequence (Q5TU56 whole entry): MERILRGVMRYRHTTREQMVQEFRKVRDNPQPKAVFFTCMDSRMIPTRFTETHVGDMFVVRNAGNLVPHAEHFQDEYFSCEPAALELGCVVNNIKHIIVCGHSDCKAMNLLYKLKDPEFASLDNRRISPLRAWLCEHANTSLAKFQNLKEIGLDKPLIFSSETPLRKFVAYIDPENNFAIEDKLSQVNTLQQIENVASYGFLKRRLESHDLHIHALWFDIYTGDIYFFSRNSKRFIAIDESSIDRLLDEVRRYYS
Description: Inhibition of Anopheles gambiae carbonic anhydrase pre-incubated for 15 mins by stopped-flow CO2 hydration assay
`NS(=O)(=O)c1ccc(O)cc1`: the inhibition constant Ki is > 100000 nM.

With `NS(=O)(=O)c1ccc(CCNS(=O)(=O)c2ccc([N+](=O)[O-])cc2CO)cc1`, the affinity corresponds to a Ki of 6.1 nM.

`NS(=O)(=O)c1cccc(S(N)(=O)=O)c1`: the affinity corresponds to a Ki of 843 nM.

In the case of `NS(=O)(=O)c1cc(Cl)cc(Cl)c1O`, the affinity, expressed as Ki, was 6480 nM.

Turning to `Nc1nnc(S(N)(=O)=O)s1`, the Ki worked out at 737 nM.

For the compound `Nc1ccc(S(=O)(=O)NCc2ccc(S(N)(=O)=O)cc2)cc1`, the affinity corresponds to a Ki of 81.9 nM.

The compound `Nc1cc(Cl)c(S(N)(=O)=O)cc1S(N)(=O)=O` had a Ki of 756 nM.

In the case of `Nc1ccc(S(=O)(=O)Nc2nnc(S(N)(=O)=O)s2)cc1`, the affinity, expressed as Ki, was 6.8 nM.

Compound `Nc1ccc(S(=O)(=O)Nc2ccc(S(N)(=O)=O)cc2)cc1` displayed a Ki of 83.4 nM.

`Nc1nccc(Nc2ccc(S(N)(=O)=O)cc2)n1` had a Ki of 10600 nM.

Turning to `Nc1ccc(S(N)(=O)=O)cc1Br`, affinity was put at a Ki of 855 nM.

Take `Cn1nc(S(N)(=O)=O)sc1=N`: the Ki was 1680 nM.

In the case of `NS(=O)(=O)c1ccc(CCO)cc1`, the Ki was > 100000 nM.

For the compound `Nc1cccc(S(N)(=O)=O)c1`, the affinity, expressed as Ki, was 887 nM.

`Nc1ccc(S(N)(=O)=O)cc1F`: the Ki is 902 nM.

As for `NS(=O)(=O)c1ccc(CO)cc1`, the Ki was > 100000 nM.

For the compound `NCCc1ccc(S(N)(=O)=O)cc1`, the Ki was found to be 835 nM.

`Nc1ccc(S(N)(=O)=O)cc1Cl`: the inhibition constant Ki worked out at 12400 nM.

As to `Nc1ccc(S(=O)(=O)NCCc2ccc(S(N)(=O)=O)cc2)cc1`, the Ki is 47 nM.

`NS(=O)(=O)c1ccc(S(=O)(=O)Nc2cccc3c(Cl)c[nH]c23)cc1` registered an inhibitory constant (Ki) of 226 nM.

As for `Nc1cc(C(F)(F)F)c(S(N)(=O)=O)cc1S(N)(=O)=O` [2,4-DISULFAMYLTRIFLUOROMETHYLANILINE], the Ki came out at 4360 nM.

`NS(=O)(=O)c1nnc(NS(=O)(=O)c2ccccc2)s1` [BENZOLAMIDE] yielded an inhibitory constant (Ki) of 9.8 nM.

As to `CCN[C@H]1CN(CCCOC)S(=O)(=O)c2sc(S(N)(=O)=O)cc21` [BRINZOLAMIDE], affinity was put at a Ki of 31.4 nM.

Compound `Cc1ccc(-c2cc(C(F)(F)F)nn2-c2ccc(S(N)(=O)=O)cc2)cc1` [CELECOXIB] yielded an inhibition constant (Ki) of 173 nM.

`CCOc1ccc2nc(S(N)(=O)=O)sc2c1` [ETHOXZOLAMIDE] returned a Ki of 185 nM.

Regarding `NCc1ccc(S(N)(=O)=O)cc1` [MAFENIDE], the Ki came out at 13600 nM.

`Cc1ccc(S(N)(=O)=O)cc1` [P-TOLUENESULFONAMIDE] registered a Ki of 12400 nM.

Compound `O=C1NS(=O)(=O)c2ccccc21` [SACCHARIN] came in with a Ki of 95.3 nM.

In the case of `Nc1ccc(S(N)(=O)=O)cc1` [SULFANILAMIDE], the Ki came to 862 nM.

Take `CC1(C)O[C@@H]2[C@@H](CO[C@@]3(COS(N)(=O)=O)OC(C)(C)O[C@@H]23)O1` [TOPIRAMATE]: the inhibition constant (Ki) was > 100000 nM.

In general, Ki refers to the dissociation constant of the complex between target and ligand, obtained from inhibition or displacement. High values mean weaker binding, low ones tighter binding.

Source of the values: ChEMBL document CHEMBL3400079 (Bioorg Med Chem, 2015).
